Like-named read-outs stand apart in the source and are kept apart here.
Target: GST-Bc1-2 (Homo sapiens, UniProt P10415)
Assay: Time Resolved-Fluorescence Resonance Energy Transfer (TR-FRET) Bcl-2 binding assay with F-Bak peptide probe
[1] = GST-Bcl-2 1 nM, F-Bak probe 100 nM, Tb-anti-GST 1 nM, '<' = below limit of detection, read-out: TR-FRET Bcl-2 Binding Ki
[2] = Table 5, direct comparison Z=N vs Z=C analogs, read-out: Bcl-2 FRET ki
[3] = Table 4, selected compounds of Ser. No. 12/631,404, read-out: Bcl-2 FRET Ki

Chain of GST-Bc1-2 (P10415 whole entry): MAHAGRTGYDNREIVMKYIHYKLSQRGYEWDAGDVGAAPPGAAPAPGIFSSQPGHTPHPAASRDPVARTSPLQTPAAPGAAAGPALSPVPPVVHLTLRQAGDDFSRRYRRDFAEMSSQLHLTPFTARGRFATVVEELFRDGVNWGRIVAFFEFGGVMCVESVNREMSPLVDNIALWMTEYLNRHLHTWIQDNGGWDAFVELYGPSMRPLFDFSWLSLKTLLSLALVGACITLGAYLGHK

Structure (SMILES) | Ki [1] | Ki [2] | Ki [3]
CC1(C)CCC(CN2CCN(c3ccc(C(=O)NS(=O)(=O)c4ccc(NC5CCN([C@H]6CCOC[C@H]6F)CC5)c([N+](=O)[O-])c4)c(Oc4cnc5[nH]ccc5c4)c3)CC2)=C(c2ccc(Cl)cc2)C1 (relative stereo) [Example 115, 4-(4-{[2-(4-chlorophenyl)-4,4-dimethylcyclohex-1-en-1-yl]methyl}piperazin-1-yl)-N-{[4-({1-[cis-3-fluorotetrahydro-2H-pyran-4-yl]piperidin-4-yl}amino)-3-nitrophenyl]sulfonyl}-2-(1H-pyrrolo[2,3-b]pyridin-5-yloxy)benzamide] | < 10 pM | – | –
CC1(C)CCC(CN2CCN(c3ccc(C(=O)NS(=O)(=O)c4ccc(OC[C@@H]5CN(C6COC6)C[C@H]5CF)c([N+](=O)[O-])c4)c(Oc4cnc5[nH]ccc5c4)c3)CC2)=C(c2ccc(Cl)cc2)C1 (relative stereo) [Example 137, 4-(4-{[2-(4-chlorophenyl)-4,4-dimethylcyclohex-1-en-1-yl]methyl}piperazin-1-yl)-N-[(4-{[trans-4-(fluoromethyl)-1-oxetan-3-ylpyrrolidin-3-yl]methoxy}-3-nitrophenyl)sulfonyl]-2-(1H-pyrrolo[2,3-b]pyridin-5-yloxy)benzamide] | < 10 pM | – | –
O=C(NS(=O)(=O)c1ccc(NCC2CCOCC2)c([N+](=O)[O-])c1)c1ccc(N2CCN(Cc3ccccc3-c3ccc(Cl)cc3)CC2)cc1Oc1cnc2[nH]ccc2c1 [Example 1, 4-{4-[(4′-chloro-1,1′-biphenyl-2-yl)methyl]piperazin-1-yl}-N-({3-nitro-4-[(tetrahydro-2H-pyran-4-ylmethyl)amino]phenyl}sulfonyl)-2-(1H-pyrrolo[2,3-b]pyridin-5-yloxy)benzamide] | 225 pM | 225 pM | –
O=C(NS(=O)(=O)c1ccc(NCCCN2CCOCC2)c([N+](=O)[O-])c1)c1ccc(N2CCN(Cc3ccccc3-c3ccc(Cl)cc3)CC2)cc1Oc1cnc2[nH]ccc2c1 [Example 2, 4-{4-[(4′-chloro-1,1′-biphenyl-2-yl)methyl]piperazin-1-yl}-N-({4-[(3-morpholin-4-ylpropyl)amino]-3-nitrophenyl}sulfonyl)-2-(1H-pyrrolo[2,3-b]pyridin-5-yloxy)benzamide] | < 10 pM | < 10 pM | –
CC1(C)CCC(CN2CCN(c3ccc(C(=O)NS(=O)(=O)c4ccc(NC5CCN(C6CCOCC6)CC5)c([N+](=O)[O-])c4)c(Oc4cnc5[nH]ccc5c4)c3)CC2)=C(c2ccc(Cl)cc2)C1 [Example 3, 4-(4-{[2-(4-chlorophenyl)-4,4-dimethylcyclohex-1-en-1-yl]methyl}piperazin-1-yl)-N-({3-nitro-4-[(1-tetrahydro-2H-pyran-4-ylpiperidin-4-yl)amino]phenyl}sulfonyl)-2-(1H-pyrrolo[2,3-b]pyridin-5-yloxy)benzamide] | 13 pM | 13 pM | –
CN1CCC(Nc2ccc(S(=O)(=O)NC(=O)c3ccc(N4CCN(CC5=C(c6ccc(Cl)cc6)CC(C)(C)CC5)CC4)cc3Oc3cccc4[nH]c5ccccc5c34)cc2[N+](=O)[O-])CC1 [Example 7, 2-(9H-carbazol-4-yloxy)-4-(4-{[2-(4-chlorophenyl)-4,4-dimethylcyclohex-1-en-1-yl]methyl}piperazin-1-yl)-N-({4-[(1-methylpiperidin-4-yl)amino]-3-nitrophenyl}sulfonyl)benzamide] | 4920 pM | – | –
CC1(C)CCC(CN2CCN(c3ccc(C(=O)NS(=O)(=O)c4ccc(NCCCN5CCCC5)c([N+](=O)[O-])c4)c(Oc4cccc5[nH]c6ccccc6c45)c3)CC2)=C(c2ccc(Cl)cc2)C1 [Example 8, 2-(9H-carbazol-4-yloxy)-4-(4-{[2-(4-chlorophenyl)-4,4-dimethylcyclohex-1-en-1-yl]methyl}piperazin-1-yl)-N-({3-nitro-4-[(3-pyrrolidin-1-ylpropyl)amino]phenyl}sulfonyl)benzamide] | 153 pM | – | –
CC1(C)CCC(CN2CCN(c3ccc(C(=O)NS(=O)(=O)c4ccc(NC[C@@H]5CCCOC5)c([N+](=O)[O-])c4)c(Oc4cnc5[nH]ccc5c4)c3)CC2)=C(c2ccc(Cl)cc2)C1 [Example 11, 4-(4-{[2-(4-chlorophenyl)-4,4-dimethylcyclohex-1-en-1-yl]methyl}piperazin-1-yl)-N-[(3-nitro-4-{[(3S)-tetrahydro-2H-pyran-3-ylmethyl]amino}phenyl)sulfonyl]-2-(1H-pyrrolo[2,3-b]pyridin-5-yloxy)benzamide] | 16 pM | 16 pM | –
CC1(C)CCC(CN2CCN(c3ccc(C(=O)NS(=O)(=O)c4ccc5ccccc5c4)c(Oc4cnc5[nH]ccc5c4)c3)CC2)=C(c2ccc(Cl)cc2)C1 [Example 14, 4-(4-{[2-(4-chlorophenyl)-4,4-dimethylcyclohex-1-en-1-yl]methyl}piperazin-1-yl)-N-(2-naphthylsulfonyl)-2-(1H-pyrrolo[2,3-b]pyridin-5-yloxy)benzamide] | 2800 pM | – | –
COCCNc1ccc(S(=O)(=O)NC(=O)c2ccc(N3CCN(CC4=C(c5ccc(Cl)cc5)CC(C)(C)CC4)CC3)cc2Oc2cnc3[nH]ccc3c2)cc1S(=O)(=O)C(F)(F)F [Example 16, 4-(4-{[2-(4-chlorophenyl)-4,4-dimethylcyclohex-1-en-1-yl]methyl}piperazin-1-yl)-N-({4-[(2-methoxyethyl)amino]-3-[(trifluoromethyl)sulfonyl]phenyl}sulfonyl)-2-(1H-pyrrolo[2,3-b]pyridin-5-yloxy)benzamide] | 219 pM | 219 pM | –
CC1(C)CCC(CN2CCN(c3ccc(C(=O)NS(=O)(=O)c4ccc(NCC5CCOCC5)c(S(=O)(=O)C(F)(F)F)c4)c(Oc4cnc5[nH]ccc5c4)c3)CC2)=C(c2ccc(Cl)cc2)C1 [Example 17, 4-(4-{[2-(4-chlorophenyl)-4,4-dimethylcyclohex-1-en-1-yl]methyl}piperazin-1-yl)-2-(1H-pyrrolo[2,3-b]pyridin-5-yloxy)-N-({4-[(tetrahydro-2H-pyran-4-ylmethyl)amino]-3-[(trifluoromethyl)sulfonyl]phenyl}sulfonyl)benzamide] | 90 pM | 90 pM | –
CC1(C)CCC(CN2CCN(c3ccc(C(=O)NS(=O)(=O)c4ccc(NCC5CCOCC5)c([N+](=O)[O-])c4)c(Oc4ccc5[nH]ccc5c4)c3)CC2)=C(c2ccc(Cl)cc2)C1 [Example 18, 4-(4-{[2-(4-chlorophenyl)-4,4-dimethylcyclohex-1-en-1-yl]methyl}piperazin-1-yl)-2-(1H-indol-5-yloxy)-N-({3-nitro-4-[(tetrahydro-2H-pyran-4-ylmethyl)amino]phenyl}sulfonyl)benzamide] | 17 pM | 17 pM | –
CC1(C)CCC(CN2CCN(c3ccc(C(=O)NS(=O)(=O)c4ccc(N[C@H]5CC[C@H](N6CCOCC6)CC5)c([N+](=O)[O-])c4)c(Oc4ccc5[nH]ccc5c4)c3)CC2)=C(c2ccc(Cl)cc2)C1 [Example 19, Trans-4-(4-{[2-(4-chlorophenyl)-4,4-dimethylcyclohex-1-en-1-yl]methyl}piperazin-1-yl)-2-(1H-indol-5-yloxy)-N-({4-[(4-morpholin-4-ylcyclohexyl)amino]-3-nitrophenyl}sulfonyl)benzamide] | 226 pM | 226 pM | 226 pM
COCCNc1ccc(S(=O)(=O)NC(=O)c2ccc(N3CCN(CC4=C(c5ccc(Cl)cc5)CC(C)(C)CC4)CC3)cc2Oc2ccc3[nH]ccc3c2)cc1[N+](=O)[O-] [Example 20, 4-(4-{[2-(4-chlorophenyl)-4,4-dimethylcyclohex-1-en-1-yl]methyl}piperazin-1-yl)-2-(1H-indol-5-yloxy)-N-({4-[(2-methoxyethyl)amino]-3-nitrophenyl}sulfonyl)benzamide] | 181 pM | 181 pM | 181 pM
CC1(C)CC(c2ccc(Cl)cc2)=C(CN2CCN(c3ccc(C(=O)NS(=O)(=O)c4ccc(NCC5CCOCC5)c([N+](=O)[O-])c4)c(Oc4ccc5[nH]ccc5c4)c3)CC2)CO1 [Example 23, 4-(4-{[4-(4-chlorophenyl)-6,6-dimethyl-5,6-dihydro-2H-pyran-3-yl]methyl}piperazin-1-yl)-2-(1H-indol-5-yloxy)-N-({3-nitro-4-[(tetrahydro-2H-pyran-4-ylmethyl)amino]phenyl}sulfonyl)benzamide] | 83 pM | 83 pM | 83 pM
CC1(C)CCC(CN2CCN(c3ccc(C(=O)NS(=O)(=O)c4ccc(OCC5CCOCC5)c([N+](=O)[O-])c4)c(Oc4cnc5[nH]ccc5c4)c3)CC2)=C(c2ccc(Cl)cc2)C1 [Example 24, 4-(4-{[2-(4-chlorophenyl)-4,4-dimethylcyclohex-1-en-1-yl]methyl}piperazin-1-yl)-N-{[3-nitro-4-(tetrahydro-2H-pyran-4-ylmethoxy)phenyl]sulfonyl}-2-(1H-pyrrolo[2,3-b]pyridin-5-yloxy)benzamide] | < 10 pM | – | –
CC1(C)CCC(CN2CCN(c3ccc(C(=O)NS(=O)(=O)c4ccc(NCC5COCCO5)c([N+](=O)[O-])c4)c(Oc4cnc5[nH]ccc5c4)c3)CC2)=C(c2ccc(Cl)cc2)C1 (centres unmarked) [Example 25, 4-(4-{[2-(4-chlorophenyl)-4,4-dimethylcyclohex-1-en-1-yl]methyl}piperazin-1-yl)-N-({4-[(1,4-dioxan-2-ylmethyl)amino]-3-nitrophenyl}sulfonyl)-2-(1H-pyrrolo[2,3-b]pyridin-5-yloxy)benzamide] | < 10 pM | – | –
CC1(C)CCC(CN2CCN(c3ccc(C(=O)NS(=O)(=O)c4ccc(NCC(F)(F)F)c([N+](=O)[O-])c4)c(Oc4cnc5[nH]ccc5c4)c3)CC2)=C(c2ccc(Cl)cc2)C1 [Example 26, 4-(4-{[2-(4-chlorophenyl)-4,4-dimethylcyclohex-1-en-1-yl]methyl}piperazin-1-yl)-N-({3-nitro-4-[(2,2,2-trifluoroethyl)amino]phenyl}sulfonyl)-2-(1H-pyrrolo[2,3-b]pyridin-5-yloxy)benzamide] | 11 pM | – | –
CC1(C)CCC(CN2CCN(c3ccc(C(=O)NS(=O)(=O)c4ccc(NCCC(F)(F)F)c([N+](=O)[O-])c4)c(Oc4cnc5[nH]ccc5c4)c3)CC2)=C(c2ccc(Cl)cc2)C1 [Example 27, 4-(4-{[2-(4-chlorophenyl)-4,4-dimethylcyclohex-1-en-1-yl]methyl}piperazin-1-yl)-N-({3-nitro-4-[(3,3,3-trifluoropropyl)amino]phenyl}sulfonyl)-2-(1H-pyrrolo[2,3-b]pyridin-5-yloxy)benzamide] | 134 pM | – | –
